The record followed here is ChEMBL document CHEMBL1201862, “PubChem BioAssay data set” (2004).

Activity calls are given as the source filed them. Bounds are passed on as bounds.

In series [1] the test system is Vero. Briefly: cells. Type of series: functional, cell-based. Particulars: Chlorocebus sabaeus.
Series [2] has as its target T1, Tyrosine-protein phosphatase non-receptor type 22 (Homo sapiens, UniProt Q9Y2R2).
T1 sequence (Q9Y2R2 whole entry): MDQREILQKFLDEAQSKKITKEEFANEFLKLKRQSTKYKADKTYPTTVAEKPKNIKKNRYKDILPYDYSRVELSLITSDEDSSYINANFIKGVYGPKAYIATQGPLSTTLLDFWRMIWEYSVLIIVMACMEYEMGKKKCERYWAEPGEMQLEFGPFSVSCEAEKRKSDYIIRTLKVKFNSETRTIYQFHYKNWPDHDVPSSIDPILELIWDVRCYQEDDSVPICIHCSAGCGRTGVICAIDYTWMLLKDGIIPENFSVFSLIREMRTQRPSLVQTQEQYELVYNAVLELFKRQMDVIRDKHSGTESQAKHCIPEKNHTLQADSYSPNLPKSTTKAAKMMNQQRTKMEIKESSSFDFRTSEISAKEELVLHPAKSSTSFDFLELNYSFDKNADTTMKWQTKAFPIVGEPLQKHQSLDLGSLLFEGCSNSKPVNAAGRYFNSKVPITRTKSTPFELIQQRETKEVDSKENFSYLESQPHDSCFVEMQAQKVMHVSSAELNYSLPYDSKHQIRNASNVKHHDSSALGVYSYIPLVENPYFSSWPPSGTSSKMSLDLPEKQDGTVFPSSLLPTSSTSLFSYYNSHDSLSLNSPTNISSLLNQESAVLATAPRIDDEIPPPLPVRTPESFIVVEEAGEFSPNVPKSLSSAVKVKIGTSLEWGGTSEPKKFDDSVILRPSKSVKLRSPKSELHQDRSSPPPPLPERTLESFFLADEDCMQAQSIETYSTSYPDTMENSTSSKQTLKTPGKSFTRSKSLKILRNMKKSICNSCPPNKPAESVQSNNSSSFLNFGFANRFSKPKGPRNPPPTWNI
It counts as functional.

A further series has as its target Genome polyprotein (dengue virus type 2, UniProt P29990). Description: flavivirus cap methylation enzyme inhibition – biochemical, confirmation dose response, primary screen (AID 588689). Type of series: functional.
Series [3] deals with T1, Tyrosine-protein phosphatase non-receptor type 22. It counts as functional. The source holds these as a separate data set.
Series [4] concerns the target T2, Tyrosine-protein phosphatase non-receptor type 7 (Homo sapiens, UniProt P35236).
T2 sequence (P35236 whole entry): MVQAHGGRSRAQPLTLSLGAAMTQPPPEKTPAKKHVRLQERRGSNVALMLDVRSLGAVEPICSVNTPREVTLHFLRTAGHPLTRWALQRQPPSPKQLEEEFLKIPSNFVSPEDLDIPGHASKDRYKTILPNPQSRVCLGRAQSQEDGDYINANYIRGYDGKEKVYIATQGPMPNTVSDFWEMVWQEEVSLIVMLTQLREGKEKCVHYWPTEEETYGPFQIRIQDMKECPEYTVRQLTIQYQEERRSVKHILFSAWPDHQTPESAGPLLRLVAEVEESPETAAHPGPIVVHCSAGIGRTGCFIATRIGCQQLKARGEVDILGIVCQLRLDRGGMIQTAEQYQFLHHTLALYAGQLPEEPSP
Type of series: functional.

Series [5] concerns Vero. Briefly: cells. Type of series: functional. Particulars: Chlorocebus sabaeus.
The nature of series [6]: Luminescence Cell-Based Dose Response to Identify Activators of 5'UTR Stem-Loop Driven Prion Protein mRNA Translation in H4-C Neuroglioblastoma Cells. [Related pubchem assays: 1829 (Project Summary), 1814 (Primary HTS)]. Type of series: functional.
The nature of series [7]: Luminescence Cell-Based Dose Confirmation to Identify Activators of 5'UTR Stem-Loop Driven Alpha-Synuclein mRNA Translation in H4 Neuroglioblastoma Cells. [Related pubchem assays: 1829 (Project Summary), 1814 (Primary HTS)]. Type of series: functional.
The nature of series [8]: Luminescence Cell-Based Dose Response HTS to Identify Activators of Luciferase Translation or Activity in H4 […] Cells. [Related pubchem assays: 1829 (Project Summary), 1814 (Primary HTS)]. It counts as functional.
Another series has as its system H4. Briefly: Luminescence Cell-Based Dose Response HTS to Identify Activators of 5'UTR Stem-Loop Driven Prion Protein mRNA Translation in H4 Neuroglioblastoma Cells. [Related pubchem assays: 1829 (Project Summary), 1814 (Primary HTS)]. It counts as functional. Particulars: Homo sapiens.
The nature of series [9]: Luminescence Cell-Based Dose Confirmation HTS to Identify Activators of 5'UTR Stem-Loop Driven Alpha-Synuclein mRNA Translation in H4 Neuroglioblastoma Cells. [Related pubchem assays: 1829 (Project Summary), 1814 (Primary HTS)]. Type of series: functional.
Series [10] in a line: Luminescence Cell-Based Dose Response to Identify Activators of Luciferase Translation or Activity in H4-C Neuroglioblastoma Cells. [Related pubchem assays: 1829 (Project Summary), 1814 (Primary HTS)]. It counts as functional.
Series [11] has as its target Induced myeloid leukemia cell differentiation protein Mcl-1 (Homo sapiens, UniProt Q07820). It counts as functional.
The next series deals with HeLa. Briefly: ATP-based viability loss in HeLa cells – cell-based, CellTiter-Glo luminescence, cherry-pick samples, cytotoxicity control for MITF activator project, dose response (AID 540259). Type of series: functional. Particulars: Homo sapiens. A general note: Cellular ATP, detected with luciferase, serves as a proxy for viable cell number.
In series [12] the target is T3, Fatty acid synthase (Homo sapiens, UniProt P49327). Briefly: inhibition of human FAS-TE enzyme activity – biochemical, kinetic fluorescence intensity, dose response (AID 624326).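 Further: rate of fluorescence rise from hydrolysis of a fluorogenic O-methyl fluorescein ester substrate.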 Type of series: functional.
A further series concerns the target T4, Streptokinase A (Streptococcus pyogenes serotype M1, UniProt P10520).
T4 sequence (P10520 whole entry): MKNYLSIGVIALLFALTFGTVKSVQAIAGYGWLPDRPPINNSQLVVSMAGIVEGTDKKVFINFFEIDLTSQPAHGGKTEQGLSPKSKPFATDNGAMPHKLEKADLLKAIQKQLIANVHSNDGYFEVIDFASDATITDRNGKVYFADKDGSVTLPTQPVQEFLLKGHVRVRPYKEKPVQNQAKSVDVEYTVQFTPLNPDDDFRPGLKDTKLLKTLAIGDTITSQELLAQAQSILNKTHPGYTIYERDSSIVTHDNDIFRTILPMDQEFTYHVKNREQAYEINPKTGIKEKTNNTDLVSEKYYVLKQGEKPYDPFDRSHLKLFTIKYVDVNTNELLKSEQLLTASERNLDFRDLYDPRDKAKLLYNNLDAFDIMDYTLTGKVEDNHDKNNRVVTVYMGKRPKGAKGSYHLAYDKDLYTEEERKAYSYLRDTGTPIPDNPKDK
Description: viability-normalized secreted streptokinase activity reduction – plasminogen activation absorbance, OD405, dose response (AID 1914).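 Further: secreted streptokinase activity via plasminogen activation per viability signal from cell pellet.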 Type of series: functional, Streptococcus pyogenes M1 GAS.

A further series concerns Streptococcus. Description: GAS UMAA2166 growth inhibition – luminescence, BacTiterGlo, counter-screen for streptokinase expression inhibitor project, dose response (AID 1915).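 Further: potency for reduction of bacterial viability or growth.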 It counts as functional, organism-based.
Series [13] has as its target FAD-linked sulfhydryl oxidase ALR (Homo sapiens, UniProt P55789). Briefly: ALR-catalysed DTT oxidation blockers – biochemical, H2O2 detection, luminescence, cherry-pick, dose response (AID 493248).
Series [14] deals with T3, Fatty acid synthase. Description: inhibition of human FAS-TE enzyme activity – biochemical, endpoint fluorescence intensity, uHTS hits, dose response (AID 624327).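 Further: fluorescence from hydrolysis of an O-methyl fluorescein acyl ester substrate by the enzyme.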 Type of series: functional.
Series [15] deals with Streptococcus sp. 'group A'. Briefly: Streptococcus pyogenes SK(-)GAS viability under kanamycin – luminescence, BacTiterGlo, confirmation, counter-screen for streptokinase expression inhibitor project, dose response (AID 1900). It counts as functional, organism-based.
Series [16] is described as follows: viability of uninfected HEp-2 cells – cell-based, HTS, cytotoxicity control for RSV inhibitor project, dose response (AID 2410). It counts as functional. Particulars: human respiratory syncytial virus.
The target in a further series is T5, Cytochrome P450 1A2 (Homo sapiens, UniProt P05177).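 Further: PubChem cytochrome P450 panel assay, CYP1A2 panel member.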
T5 sequence (P05177 whole entry): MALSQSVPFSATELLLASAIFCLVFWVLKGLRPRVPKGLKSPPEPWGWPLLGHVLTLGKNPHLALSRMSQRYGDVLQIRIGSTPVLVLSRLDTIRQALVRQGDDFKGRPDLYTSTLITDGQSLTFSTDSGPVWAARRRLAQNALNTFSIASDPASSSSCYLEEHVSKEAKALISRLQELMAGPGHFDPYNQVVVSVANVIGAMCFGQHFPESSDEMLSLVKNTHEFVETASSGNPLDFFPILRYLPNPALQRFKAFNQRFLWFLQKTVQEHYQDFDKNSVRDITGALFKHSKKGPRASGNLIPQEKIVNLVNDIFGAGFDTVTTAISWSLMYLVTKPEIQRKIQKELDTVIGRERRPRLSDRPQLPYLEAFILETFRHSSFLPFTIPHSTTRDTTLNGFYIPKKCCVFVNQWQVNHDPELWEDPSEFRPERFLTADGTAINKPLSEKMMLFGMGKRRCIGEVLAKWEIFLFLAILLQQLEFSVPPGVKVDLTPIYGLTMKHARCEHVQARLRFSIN

For a further series, the target named is Cytochrome P450 2C9 (Homo sapiens, UniProt P11712).
Another series addresses Cytochrome P450 3A4 (Homo sapiens, UniProt P08684).
Series [17] deals with T6, Polyadenylate-binding protein 1 (Homo sapiens, UniProt P11940). Briefly: MLLE binding blockers, Cy5 peptide tracer – biochemical, fluorescence polarization, Cy5-PAM2 peptide, secondary, miRNA deadenylation inhibitor project, dose response (AID 602260). It counts as functional. Particulars: read-out: IC50_Mean. In general terms: Fluorescence polarisation rises when a labelled molecule tumbles more slowly, as on binding a larger partner.

For series [18], the system named is Vero. Description: viability of Vero cells under compound – cytotoxicity control for flavivirus capping enzyme inhibitors (AID 588742). Particulars: Chlorocebus sabaeus. Type of series: functional.
The target of series [19] is T6, Polyadenylate-binding protein 1. Briefly: MLLE domain peptide-binding blockers, IC50 – biochemical, fluorescence polarization, FITC-PAM2 peptide, dose response (AID 602259). It counts as functional. Particulars: read-out: IC50_Mean.
The target of series [20] is Dual specificity tyrosine-phosphorylation-regulated kinase 1A (Rattus norvegicus, UniProt Q63470). Type of series: biochemical, Homo sapiens.
For the next series, the target named is Cytochrome P450 2C19 (Homo sapiens, UniProt P33261). Description: Cytochrome panel assay with activity outcomes. Panel member name: p450-cyp2c19 Compounds with AC50 equal or less than 10 uM are considered active. Particulars: read-out: AC50. Type of series: functional.
The target in a further series is Cytochrome P450 2D6 (Homo sapiens, UniProt P10635).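 Further: CYP2D6 member of a cytochrome P450 panel assay.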
Cytochrome P450 2D6, sequence (P10635 whole entry): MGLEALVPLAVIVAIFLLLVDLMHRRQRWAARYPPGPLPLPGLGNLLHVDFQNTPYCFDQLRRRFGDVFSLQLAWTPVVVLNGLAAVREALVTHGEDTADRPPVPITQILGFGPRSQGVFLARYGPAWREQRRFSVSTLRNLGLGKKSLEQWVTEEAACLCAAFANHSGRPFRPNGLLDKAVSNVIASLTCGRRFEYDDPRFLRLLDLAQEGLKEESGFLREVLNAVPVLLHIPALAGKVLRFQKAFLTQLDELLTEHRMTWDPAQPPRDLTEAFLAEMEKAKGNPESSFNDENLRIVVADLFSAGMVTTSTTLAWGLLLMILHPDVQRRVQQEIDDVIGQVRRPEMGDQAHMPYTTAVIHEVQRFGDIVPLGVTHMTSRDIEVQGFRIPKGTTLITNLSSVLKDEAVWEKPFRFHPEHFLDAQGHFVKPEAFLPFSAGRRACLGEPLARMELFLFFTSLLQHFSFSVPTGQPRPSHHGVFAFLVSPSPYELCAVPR

T6 sequence (P11940 whole entry): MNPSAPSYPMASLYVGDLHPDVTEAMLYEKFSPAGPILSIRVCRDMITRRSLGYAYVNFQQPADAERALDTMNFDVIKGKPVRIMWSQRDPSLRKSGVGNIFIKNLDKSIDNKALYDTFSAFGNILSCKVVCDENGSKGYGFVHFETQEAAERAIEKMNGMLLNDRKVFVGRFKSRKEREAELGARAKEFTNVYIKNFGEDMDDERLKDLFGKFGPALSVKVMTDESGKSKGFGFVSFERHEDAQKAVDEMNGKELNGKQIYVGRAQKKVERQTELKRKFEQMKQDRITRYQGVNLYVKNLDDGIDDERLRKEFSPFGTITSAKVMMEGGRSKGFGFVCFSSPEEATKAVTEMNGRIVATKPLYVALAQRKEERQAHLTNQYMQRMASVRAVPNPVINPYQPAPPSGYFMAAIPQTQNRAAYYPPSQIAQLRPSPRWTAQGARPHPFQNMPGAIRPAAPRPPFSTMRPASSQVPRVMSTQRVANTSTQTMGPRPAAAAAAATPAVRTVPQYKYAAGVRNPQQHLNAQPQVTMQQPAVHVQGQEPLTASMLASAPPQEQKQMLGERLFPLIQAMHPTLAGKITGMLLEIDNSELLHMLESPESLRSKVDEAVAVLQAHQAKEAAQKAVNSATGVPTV
T3 sequence (P49327 whole entry): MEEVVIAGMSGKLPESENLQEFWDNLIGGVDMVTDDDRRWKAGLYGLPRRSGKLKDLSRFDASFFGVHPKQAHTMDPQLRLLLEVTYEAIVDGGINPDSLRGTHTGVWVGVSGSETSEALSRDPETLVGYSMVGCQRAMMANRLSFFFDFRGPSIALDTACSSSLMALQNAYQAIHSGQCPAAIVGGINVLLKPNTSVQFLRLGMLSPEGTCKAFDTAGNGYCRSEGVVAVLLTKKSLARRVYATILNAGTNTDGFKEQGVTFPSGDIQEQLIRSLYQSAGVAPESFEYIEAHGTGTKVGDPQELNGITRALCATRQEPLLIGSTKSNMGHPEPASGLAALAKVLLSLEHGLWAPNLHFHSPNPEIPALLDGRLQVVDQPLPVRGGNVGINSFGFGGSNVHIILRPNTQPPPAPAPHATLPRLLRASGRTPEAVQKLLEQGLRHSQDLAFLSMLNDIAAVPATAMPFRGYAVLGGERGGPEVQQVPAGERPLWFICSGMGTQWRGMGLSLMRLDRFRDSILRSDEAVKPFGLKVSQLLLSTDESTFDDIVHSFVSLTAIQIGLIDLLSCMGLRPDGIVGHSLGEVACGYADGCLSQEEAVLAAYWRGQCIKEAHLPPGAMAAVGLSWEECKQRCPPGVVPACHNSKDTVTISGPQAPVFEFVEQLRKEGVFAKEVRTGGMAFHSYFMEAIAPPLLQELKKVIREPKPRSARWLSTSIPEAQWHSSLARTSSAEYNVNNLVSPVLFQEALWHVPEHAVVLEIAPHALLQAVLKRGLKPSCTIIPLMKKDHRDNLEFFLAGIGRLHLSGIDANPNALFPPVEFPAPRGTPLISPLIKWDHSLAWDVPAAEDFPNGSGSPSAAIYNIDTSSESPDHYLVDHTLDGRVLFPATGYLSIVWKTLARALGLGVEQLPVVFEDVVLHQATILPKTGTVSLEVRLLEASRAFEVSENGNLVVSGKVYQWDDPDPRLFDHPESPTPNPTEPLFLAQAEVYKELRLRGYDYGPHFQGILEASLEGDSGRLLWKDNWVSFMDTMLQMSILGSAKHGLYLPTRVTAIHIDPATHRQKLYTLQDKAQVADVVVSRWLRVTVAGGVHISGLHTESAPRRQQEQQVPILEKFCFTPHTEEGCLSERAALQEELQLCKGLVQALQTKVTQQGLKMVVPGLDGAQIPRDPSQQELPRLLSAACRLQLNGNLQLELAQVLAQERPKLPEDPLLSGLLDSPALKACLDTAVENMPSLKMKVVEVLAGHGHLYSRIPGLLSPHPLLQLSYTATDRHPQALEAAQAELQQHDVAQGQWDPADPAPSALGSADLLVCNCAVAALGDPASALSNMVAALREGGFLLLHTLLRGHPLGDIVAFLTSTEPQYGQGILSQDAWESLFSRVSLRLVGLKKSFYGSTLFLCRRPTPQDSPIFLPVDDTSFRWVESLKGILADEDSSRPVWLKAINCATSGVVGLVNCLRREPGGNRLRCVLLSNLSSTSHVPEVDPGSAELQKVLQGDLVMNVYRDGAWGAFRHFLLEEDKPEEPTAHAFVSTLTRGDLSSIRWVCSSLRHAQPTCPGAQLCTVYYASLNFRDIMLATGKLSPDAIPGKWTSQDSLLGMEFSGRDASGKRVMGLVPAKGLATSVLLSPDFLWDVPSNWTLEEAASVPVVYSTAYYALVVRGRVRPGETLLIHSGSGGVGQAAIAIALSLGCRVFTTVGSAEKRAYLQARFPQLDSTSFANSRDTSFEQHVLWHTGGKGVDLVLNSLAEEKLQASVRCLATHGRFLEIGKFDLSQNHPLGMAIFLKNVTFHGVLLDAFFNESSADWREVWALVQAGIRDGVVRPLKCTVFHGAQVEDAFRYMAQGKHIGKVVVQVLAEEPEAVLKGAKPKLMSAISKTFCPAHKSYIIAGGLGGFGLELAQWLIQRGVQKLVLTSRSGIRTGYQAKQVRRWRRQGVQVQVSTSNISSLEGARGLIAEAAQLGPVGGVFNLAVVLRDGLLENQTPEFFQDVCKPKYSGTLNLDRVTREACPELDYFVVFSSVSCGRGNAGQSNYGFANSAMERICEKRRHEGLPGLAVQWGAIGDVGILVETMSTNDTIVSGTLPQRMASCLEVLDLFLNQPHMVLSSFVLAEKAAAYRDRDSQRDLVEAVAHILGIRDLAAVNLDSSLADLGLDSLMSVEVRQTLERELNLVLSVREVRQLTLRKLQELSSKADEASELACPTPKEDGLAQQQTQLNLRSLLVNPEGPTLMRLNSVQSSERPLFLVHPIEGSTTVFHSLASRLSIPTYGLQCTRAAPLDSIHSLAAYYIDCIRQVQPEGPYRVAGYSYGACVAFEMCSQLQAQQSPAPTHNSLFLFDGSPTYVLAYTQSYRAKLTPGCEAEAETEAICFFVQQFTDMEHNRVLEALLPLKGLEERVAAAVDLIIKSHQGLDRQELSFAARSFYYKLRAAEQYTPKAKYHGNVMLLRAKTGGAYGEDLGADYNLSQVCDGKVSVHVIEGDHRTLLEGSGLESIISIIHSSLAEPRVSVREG
Induced myeloid leukemia cell differentiation protein Mcl-1, sequence (Q07820 whole entry): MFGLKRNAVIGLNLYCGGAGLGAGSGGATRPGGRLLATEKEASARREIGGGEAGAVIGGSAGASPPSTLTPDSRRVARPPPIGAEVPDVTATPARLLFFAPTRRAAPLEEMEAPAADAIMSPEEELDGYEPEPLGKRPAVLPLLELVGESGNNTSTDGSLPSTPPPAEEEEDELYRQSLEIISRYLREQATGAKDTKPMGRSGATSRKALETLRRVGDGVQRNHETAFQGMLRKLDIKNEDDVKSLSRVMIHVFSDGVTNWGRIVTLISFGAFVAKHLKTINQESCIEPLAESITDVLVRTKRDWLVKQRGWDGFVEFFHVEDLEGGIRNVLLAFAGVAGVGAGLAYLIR
Cytochrome P450 3A4, sequence (P08684 whole entry): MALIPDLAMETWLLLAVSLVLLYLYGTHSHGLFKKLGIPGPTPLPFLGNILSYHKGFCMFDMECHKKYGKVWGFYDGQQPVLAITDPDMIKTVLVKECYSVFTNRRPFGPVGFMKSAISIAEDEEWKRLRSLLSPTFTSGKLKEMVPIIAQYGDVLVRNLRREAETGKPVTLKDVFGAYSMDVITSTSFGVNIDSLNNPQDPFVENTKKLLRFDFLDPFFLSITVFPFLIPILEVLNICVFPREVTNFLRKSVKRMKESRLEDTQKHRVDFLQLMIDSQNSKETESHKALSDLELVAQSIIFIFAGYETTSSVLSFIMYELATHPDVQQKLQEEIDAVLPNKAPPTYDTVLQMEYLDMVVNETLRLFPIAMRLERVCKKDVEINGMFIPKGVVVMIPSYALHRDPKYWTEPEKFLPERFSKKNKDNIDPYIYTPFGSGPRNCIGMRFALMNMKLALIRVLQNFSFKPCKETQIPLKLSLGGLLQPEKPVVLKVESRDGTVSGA
Cytochrome P450 2C19, sequence (P33261 whole entry): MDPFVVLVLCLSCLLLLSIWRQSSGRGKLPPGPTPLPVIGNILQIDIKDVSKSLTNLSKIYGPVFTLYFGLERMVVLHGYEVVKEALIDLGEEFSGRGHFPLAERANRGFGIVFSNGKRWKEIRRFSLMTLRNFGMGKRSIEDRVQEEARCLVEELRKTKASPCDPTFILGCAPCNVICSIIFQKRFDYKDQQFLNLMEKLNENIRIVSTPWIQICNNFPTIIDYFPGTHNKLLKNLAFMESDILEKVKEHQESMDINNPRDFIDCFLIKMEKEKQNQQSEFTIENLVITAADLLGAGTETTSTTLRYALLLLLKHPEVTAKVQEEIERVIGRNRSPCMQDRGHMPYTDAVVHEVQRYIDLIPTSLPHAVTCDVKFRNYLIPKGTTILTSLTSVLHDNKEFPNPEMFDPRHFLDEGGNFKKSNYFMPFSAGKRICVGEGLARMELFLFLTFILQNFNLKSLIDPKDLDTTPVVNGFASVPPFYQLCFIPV

As to `Cc1ccc(-c2nc(CCN3C(=O)c4ccccc4C3=O)cs2)cc1`, the IC50 with Vero [1] is > 25 µM (active); in “cells”, 47.1 µM (active).
As for `CCCOC(=O)c1c(-c2ccc(C)cc2C)csc1NC(=O)C1C2CCC(O2)C1C(=O)O` (stereo not given), the IC50 was > 79.4 µM (inactive) in [2], 55 µM (active) on Genome polyprotein, > 79.4 µM (inactive) in series [3] and > 79.4 µM (inactive) in series [4].
For `CN(C)CC1CCC/C(=C\c2ccc(OC(=O)/C=C/c3ccc(Cl)c(Cl)c3)cc2)C1=O` (stereo not given), in the series with Vero [5], the CC50 – broadly, the concentration that lowers cell viability or growth by half – was 11.5 µM (active). Further, the IC50 in the series on Vero [1] is > 25 µM (active).
For `CCCCCOc1ccc(CN2CCOCC2)cc1Cl`, the EC50 (in general, the concentration that produces a half-maximal response) in [6] is 1.3 µM (active); in series [7], 0.731 µM (active); in series [8], < 0.1 µM (inconclusive); in the series with H4, 35.5 µM (active); in [9], < 0.1 µM (active); in [10], 1.05 µM (active). The IC50 in [2], in series [3] and in series [4] was > 79.4 µM (inactive) each time.
For `C/C(=N\Nc1ccc(C(=O)O)cc1)c1ccc2c(c1)Nc1ccccc1S2`, the values for the IC50 (in series [11]; on Fatty acid synthase [12]; on Fatty acid synthase [14]) were 36 µM (active), 6.48 µM (active) and 11.7 µM (active), respectively. Besides, the AC50 (usually the midpoint of the concentration-response curve, whichever way the signal moves) in the series with HeLa is 48.5 µM (active); in series [13], 0.013 µM (active). Moreover, the results for the EC50 (at Streptokinase A; with Streptococcus; in [15]) were > 150 µM (not active), 7.08 µM (active) and 3.9 µM (active), respectively.
In the case of `CSc1nnc2c3ccccc3n(CCc3ccccc3)c2n1`, the CC50 in series [16] is > 50 µM (active). Moreover, in the series on Vero [1], the IC50 is > 12.5 µM (active).
For `CCCC(=O)Nc1ccc(C#Cc2ccccc2)cc1`, the AC50 in the series with HeLa is 173 µM (active).
With `COC(=O)[C@@]1(Cc2ccc(F)cc2)[C@H]2c3cc(C(=O)N(C)C)n(Cc4cc(F)c(F)c(F)c4)c3C[C@H]2CN1C(=O)c1ccccc1`, on Cytochrome P450 1A2, the AC50 entry is recorded as “inconclusive”.
Regarding `COc1ccc(NC(=O)N2CC[C@@]3(CCCN(C(=O)c4c(C)noc4C)C3)C2)cc1`, the AC50 result on Cytochrome P450 2C9 was “inconclusive”; at Cytochrome P450 3A4, 7.94 µM (inconclusive); on Cytochrome P450 1A2, “inconclusive”.
Regarding `Fc1ccccc1N=C(S)Nc1cccc2cnccc12`, the IC50 in [17] and in series [19] was > 66 µM (inactive) in each case. Further, the CC50 with Vero [18] is > 40 µM (active). Moreover, the AC50 in series [20] is 5.56 µM (active).
For `CCCCc1nc2cc(C(=O)N3CCN(c4nc(C)cnc4C)CC3)ccc2o1`, the AC50 with HeLa is 47.3 µM (active).
As to `COCCCNC(=O)C1CCC(=O)N1Cc1ccccc1Cl` (stereo not given), the AC50 is 22.4 µM (inconclusive) at Cytochrome P450 2C19, 25.1 µM (inconclusive) at Cytochrome P450 2D6 and “inconclusive” on Cytochrome P450 1A2.
